From US20220177508A1, “C10-Cyclic Substituted 13-Membered Macrolides and Uses Thereof” (Zikani Therapeutics, Inc., priority 2018, published 2022)
Converted amounts (≈) assume the structure as drawn. Where two headings read alike, the source gives them in different places.

What was measured:
[1] = ester bond, chlorobenzene
S. aureus MP-12 = assay: Broth dilution MIC determination (CLSI), S. aureus MP-12; format: cell-based; details: strain MP-12, broth dilution; for MIC: Staphylococcus aureus, MP12
E. coli MP-4 = assay: Broth dilution MIC determination (CLSI), E. coli MP-4; format: cell-based; details: strain MP-4, broth dilution; for MIC: Escherichia coli, MP4, read-out: MIC E. coli MP-4
K. pneumoniae MP-546 = assay: Broth dilution MIC determination (CLSI), K. pneumoniae MP-546; format: cell-based; details: strain MP-546, broth dilution; for MIC: Klebsiella pneumoniae, MP546
K. pneumoniae MP-648 = assay: Broth dilution MIC determination (CLSI), K. pneumoniae MP-648; format: cell-based; details: strain MP-648, broth dilution; for MIC: Klebsiella pneumoniae, MP648
P. aeruginosa MP-3 = assay: Broth dilution MIC determination (CLSI), P. aeruginosa MP-3; format: cell-based; details: strain MP-3, broth dilution; for MIC: Pseudomonas aeruginosa, MP3
A. baumannii MP-15 = assay: Broth dilution MIC determination (CLSI), A. baumannii MP-15; format: cell-based; details: strain MP-15, broth dilution; for MIC: Acinetobacter baumannii, MP15, read-out: MIC A. baumanii MP-15

MIC (S. aureus MP-12) [µg/mL] | MIC (E. coli MP-4) [µg/mL] | MIC (K. pneumoniae MP-546) [µg/mL] | MIC (K. pneumoniae MP-648) [µg/mL] | MIC (P. aeruginosa MP-3) [µg/mL] | MIC (A. baumannii MP-15) [µg/mL] | MIC S. aureus MP-12 (S. aureus MP-12) | MIC P aeruginosa MP-3 (P. aeruginosa MP-3) | MIC A. baumanii MP-15 (A. baumannii MP-15) | Structure (SMILES) | ring closure, yield of all isomers ([1]; from CO[C@](C)(C[C@@H](C)CN(C(=O)OCc1ccccc1)[C@@H](CO)C1CCN(C(=O)OC(C)(C)C)CC1)[C@H](O[C@@H]1O[C@H](C)C[C@H](N(C)C)[C@H]1OC(=O)c1ccccc1)[C@@H](C)C1=C(C)C(=O)OC(C)(C)O1, 3.15 mM, 148.0 °C, 23.0 h) [%] | ring closure, yield of all isomers ([1]; from CO[C@](C)(C[C@@H](C)CN(C)[C@@H](CO)c1ccc(Br)cc1)[C@H](O[C@@H]1O[C@H](C)C[C@H](N(C)C)[C@H]1OC(=O)c1ccccc1)[C@@H](C)C1=C(C)C(=O)OC(C)(C)O1, 4.0 mM, 165.0 °C, 20.0 h) [%] | MIC E. coli MP-4 (E. coli MP-4) | MIC K. pneumoniae MP-546 (K. pneumoniae MP-546) | MIC K. pneumoniae MP-648 (K. pneumoniae MP-648)
 |  |  |  |  |  |  |  |  | CO[C@]1(C)C[C@@H](C)CN(C(=O)OCc2ccccc2)[C@H](C2CCN(C(=O)OC(C)(C)C)CC2)COC(=O)[C@H](C)C(=O)[C@H](C)[C@H]1O[C@@H]1O[C@H](C)C[C@H](N(C)C)[C@H]1OC(=O)c1ccccc1 | 29 |  |  |  | 
 |  |  |  |  |  |  |  |  | CO[C@]1(C)C[C@@H](C)CN(C)[C@H](c2ccc(Br)cc2)COC(=O)C(C)C(=O)[C@H](C)[C@H]1O[C@@H]1O[C@H](C)C[C@H](N(C)C)[C@H]1OC(=O)c1ccccc1 (some centres unmarked) |  | 99 |  |  | 
4 to 32 (≈ 6.25 to 50 µM) | < 4 | < 4 | < 4 | > 32 | > 32 |  |  |  | CO[C@]1(C)C[C@@H](C)CN(C)[C@](C)(C2CCN(C(C)C)CC2)COC(=O)C(C)(C)C(=O)[C@H](C)[C@H]1O[C@@H]1O[C@H](C)C[C@H](N(C)C)[C@H]1O [Compound 158, (3R,6R,8R,9R,10R)-9-(((2S,3R,4S,6R)-4-(dimethylamino)-3-hydroxy-6-methyltetrahydro-2H-pyran-2-yl)oxy)-3-(1-isopropylpiperidin-4-yl)-8-methoxy-3,4,6,8,10,12,12-heptamethyl-1-oxa-4-azacyclotridecane-11,13-dione] |  |  |  |  | 
4 to 32 (≈ 6.25 to 50 µM) | < 4 | < 4 | 4 to 32 (≈ 6.25 to 50 µM) | > 32 | > 32 |  |  |  | CO[C@]1(C)C[C@@H](C)CN(C)[C@H](C2CN(CC3CCCO3)C2)COC(=O)C(C)(C)C(=O)[C@H](C)[C@H]1O[C@@H]1O[C@H](C)C[C@H](N(C)C)[C@H]1O (stereo partly drawn) [Compound 164, (3R,6R,8R,9R,10R)-9-(((2S,3R,4S,6R)-4-(dimethylamino)-3-hydroxy-6-methyltetrahydro-2H-pyran-2-yl)oxy)-8-methoxy-4,6,8,10,12,12-hexamethyl-3-(1-((tetrahydrofuran-2-yl)methyl)azetidin-3-yl)-1-oxa-4-azacyclotridecane-11,13-dione] |  |  |  |  | 
> 32 | < 4 | 4 to 32 (≈ 6.54 to 52.3 µM) | 4 to 32 (≈ 6.54 to 52.3 µM) | > 32 | > 32 |  |  |  | CCN(C)[C@H]1C[C@@H]([C@@H]2COC(=O)C(C)(C)C(=O)[C@H](C)[C@@H](O[C@@H]3O[C@H](C)C[C@H](N(C)C)[C@H]3O)[C@](C)(OC)C[C@@H](C)CN2C)C1 [Compound 165, (3R,6R,8R,9R,10R)-9-(((2S,3R,4S,6R)-4-(dimethylamino)-3-hydroxy-6-methyltetrahydro-2H-pyran-2-yl)oxy)-3-((1s,3S)-3-(ethyl(methyl)amino)cyclobutyl)-8-methoxy-4,6,8,10,12,12-hexamethyl-1-oxa-4-azacyclotridecane-11,13-dione] |  |  |  |  | 
4 to 32 (≈ 6 to 48 µM) | < 4 | 4 to 32 (≈ 6 to 48 µM) | > 32 | > 32 | > 32 |  |  |  | CO[C@]1(C)C[C@@H](C)CN(C)[C@H](C2CN(C(=O)[C@H]3CCN(C)C3)C2)COC(=O)C(C)(C)C(=O)[C@H](C)[C@H]1O[C@@H]1O[C@H](C)C[C@H](N(C)C)[C@H]1O [Compound 168, (3R,6R,8R,9R,10R)-9-(((2S,3R,4S,6R)-4-(dimethylamino)-3-hydroxy-6-methyltetrahydro-2H-pyran-2-yl)oxy)-8-methoxy-4,6,8,10,12,12-hexamethyl-3-(1-((S)-1-methylpyrrolidine-3-carbonyl)azetidin-3-yl)-1-oxa-4-azacyclotridecane-11,13-dione] |  |  |  |  | 
4 to 32 (≈ 6.18 to 49.5 µM) | 4 to 32 (≈ 6.18 to 49.5 µM) | 4 to 32 (≈ 6.18 to 49.5 µM) | > 32 | > 32 | > 32 |  |  |  | CO[C@]1(C)C[C@@H](C)CN(C)[C@H](C2CN(Cc3ccncc3)C2)COC(=O)C(C)(C)C(=O)[C@H](C)[C@H]1O[C@@H]1O[C@H](C)C[C@H](N(C)C)[C@H]1O [Compound 176, (3R,6R,8R,9R,10R)-9-(((2S,3R,4S,6R)-4-(dimethylamino)-3-hydroxy-6-methyltetrahydro-2H-pyran-2-yl)oxy)-8-methoxy-4,6,8,10,12,12-hexamethyl-3-(1-(pyridin-4-ylmethyl)azetidin-3-yl)-1-oxa-4-azacyclotridecane-11,13-dione] |  |  |  |  | 
4 to 32 (≈ 6.17 to 49.4 µM) | 4 to 32 (≈ 6.17 to 49.4 µM) | 4 to 32 (≈ 6.17 to 49.4 µM) | > 32 | > 32 | > 32 |  |  |  | CO[C@]1(C)C[C@@H](C)CN(C)[C@H](C2CN(Cc3cncnc3)C2)COC(=O)C(C)(C)C(=O)[C@H](C)[C@H]1O[C@@H]1O[C@H](C)C[C@H](N(C)C)[C@H]1O [Compound 177, (3R,6R,8R,9R,10R)-9-(((2S,3R,4S,6R)-4-(dimethylamino)-3-hydroxy-6-methyltetrahydro-2H-pyran-2-yl)oxy)-8-methoxy-4,6,8,10,12,12-hexamethyl-3-(1-(pyrimidin-5-ylmethyl)azetidin-3-yl)-1-oxa-4-azacyclotridecane-11,13-dione] |  |  |  |  | 
> 32 | < 4 | 4 to 32 (≈ 5.63 to 45 µM) | 4 to 32 (≈ 5.63 to 45 µM) | > 32 | > 32 |  |  |  | CO[C@]1(C)C[C@@H](C)CN(C)[C@H](C2CN(C(=O)CCCN(C)CC(C)C)C2)COC(=O)C(C)(C)C(=O)[C@H](C)[C@H]1O[C@@H]1O[C@H](C)C[C@H](N(C)C)[C@H]1O [Compound 178, (3R,6R,8R,9R,10R)-9-(((2S,3R,4S,6R)-4-(dimethylamino)-3-hydroxy-6-methyltetrahydro-2H-pyran-2-yl)oxy)-3-(1-(4-(isobutyl(methyl)amino)butanoyl)azetidin-3-yl)-8-methoxy-4,6,8,10,12,12-hexamethyl-1-oxa-4-azacyclotridecane-11,13-dione] |  |  |  |  | 
4 to 32 (≈ 6.13 to 49 µM) | 4 to 32 (≈ 6.13 to 49 µM) | > 32 | > 32 | > 32 | > 32 |  |  |  | CO[C@]1(C)C[C@@H](C)CN(C)[C@H](C2CN(C(=O)[C@H]3CCNC3)C2)COC(=O)C(C)(C)C(=O)[C@H](C)[C@H]1O[C@@H]1O[C@H](C)C[C@H](N(C)C)[C@H]1O [Compound 181, (3R,6R,8R,9R,10R)-9-(((2S,3R,4S,6R)-4-(dimethylamino)-3-hydroxy-6-methyltetrahydro-2H-pyran-2-yl)oxy)-8-methoxy-4,6,8,10,12,12-hexamethyl-3-(1-((S)-pyrrolidine-3-carbonyl)azetidin-3-yl)-1-oxa-4-azacyclotridecane-11,13-dione] |  |  |  |  | 
4 to 32 (≈ 5.74 to 45.9 µM) | < 4 | 4 to 32 (≈ 5.74 to 45.9 µM) | 4 to 32 (≈ 5.74 to 45.9 µM) | > 32 | > 32 |  |  |  | CO[C@]1(C)C[C@@H](C)CN(C)[C@H](C2CN(C(=O)CC(C)(C)CN(C)C)C2)COC(=O)C(C)(C)C(=O)[C@H](C)[C@H]1O[C@@H]1O[C@H](C)C[C@H](N(C)C)[C@H]1O [Compound 183, (3R,6R,8R,9R,10R)-3-(1-(4-(dimethylamino)-3,3-dimethylbutanoyl)azetidin-3-yl)-9-(((2S,3R,4S,6R)-4-(dimethylamino)-3-hydroxy-6-methyltetrahydro-2H-pyran-2-yl)oxy)-8-methoxy-4,6,8,10,12,12-hexamethyl-1-oxa-4-azacyclotridecane-11,13-dione] |  |  |  |  | 
 |  |  |  |  |  | + (values greater than 32 mg/L) | + (values greater than 32 mg/L) | + (values greater than 32 mg/L) | CO[C@]1(C)C[C@@H](C)CN(C)[C@H](C2CC(N(C)CC(C)C)C2)COC(=O)C(C)(C)C(=O)[C@H](C)[C@H]1O[C@@H]1O[C@H](C)C[C@H](N(C)C)[C@H]1O (stereo partly drawn) [Compound 187, (3R,6R,8R,9R,10R)-9-(((2S,3R,4S,6R)-4-(dimethylamino)-3-hydroxy-6-methyltetrahydro-2H-pyran-2-yl)oxy)-3-((1S,3S)-3-(isobutyl(methyl)amino)cyclobutyl)-8-methoxy-4,6,8,10,12,12-hexamethyl-1-oxa-4-azacyclotridecane-11,13-dione] |  |  | +++ (values less than or equal to 4 mg/L) | +++ (values less than or equal to 4 mg/L) | ++ (values of greater than 4 mg/L and less than or equal to 32 mg/L)
